# pKi: −log10 of the molar value.
# How the values were obtained:
# Carbonic anhydrase = target: T1, Carbonic anhydrase (Helicobacter pylori (strain ATCC 700392 / 26695) (Campylobacterpylori), UniProt O24855)
# T1 sequence (O24855 whole entry): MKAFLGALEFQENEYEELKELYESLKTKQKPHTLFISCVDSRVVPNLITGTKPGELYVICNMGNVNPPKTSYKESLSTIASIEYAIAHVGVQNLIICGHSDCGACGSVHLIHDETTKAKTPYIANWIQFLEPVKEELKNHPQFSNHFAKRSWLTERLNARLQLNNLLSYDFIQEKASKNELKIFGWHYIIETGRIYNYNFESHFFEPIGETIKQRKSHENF
# Description: Inhibition of Helicobacter pylori recombinant carbonic anhydrase by stopped-flow CO2 hydrase assay
# Carbonic anhydrase 1 = Carbonic anhydrase 1 (Homo sapiens, UniProt P00915)
# Sequence of Carbonic anhydrase 1 (P00915 whole entry): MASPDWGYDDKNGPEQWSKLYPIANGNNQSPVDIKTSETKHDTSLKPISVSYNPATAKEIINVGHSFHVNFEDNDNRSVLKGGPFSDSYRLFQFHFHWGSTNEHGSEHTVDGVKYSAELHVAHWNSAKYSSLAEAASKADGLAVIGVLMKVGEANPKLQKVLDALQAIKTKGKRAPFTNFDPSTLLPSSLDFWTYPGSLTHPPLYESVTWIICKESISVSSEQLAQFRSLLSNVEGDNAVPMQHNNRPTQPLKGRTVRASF
# Description: Inhibition of human recombinant carbonic anhydrase 1 by stopped-flow CO2 hydrase assay
Compound,pKi (Carbonic anhydrase),pKi (Carbonic anhydrase 1)
CC(C)(C)c1ccc(C(=O)Nc2cccc(S(N)(=O)=O)c2)cc1,6.50,4.97
CC(C)(C)c1ccc(S(=O)(=O)Nc2ccc(S(N)(=O)=O)cc2)cc1,7.22,4.89
CC(C)(C)c1ccc(S(=O)(=O)Nc2ccccc2S(N)(=O)=O)cc1,6.19,4.83
CC(C)(C)c1ccc(S(=O)(=O)CCNc2ccc(S(N)(=O)=O)cc2)cc1,7.57,4.92
CC(C)(C)c1ccc(C(=O)NCCc2ccc(S(N)(=O)=O)cc2)cc1,7.29,4.90
CC(C)(C)c1ccc(C(=O)Nc2ccccc2S(N)(=O)=O)cc1,6.27,4.91
CC(C)(C)c1ccc(S(=O)(=O)CNc2ccc(S(N)(=O)=O)cc2)cc1,7.51,4.92
CC(C)(C)c1ccc(S(=O)(=O)Nc2cccc(S(N)(=O)=O)c2)cc1,6.50,5.02
CC(C)(C)c1ccc(S(=O)(=O)Nc2nnc(S(N)(=O)=O)s2)cc1,7.92,6.47
CC(C)(C)c1ccc(C(=O)Nc2nnc(S(N)(=O)=O)s2)cc1,7.89,6.27
Nc1ccc(S(=O)(=O)NCc2ccc(S(N)(=O)=O)cc2)cc1,6.88,
Nc1ccc(S(N)(=O)=O)cc1I,6.29,
Nc1ccc(S(=O)(=O)Nc2nnc(S(N)(=O)=O)s2)cc1,6.57,
CC(C)(C)c1ccc(C(=O)NCc2ccc(S(N)(=O)=O)cc2)cc1,7.21,4.88
CC(C)(C)c1ccc(C(=O)Nc2ccc(S(N)(=O)=O)cc2)cc1,7.10,4.85
Nc1nccc(Nc2ccc(S(N)(=O)=O)cc2)n1,7.08,
Nc1ccc(S(N)(=O)=O)cc1Br,6.34,
Cn1nc(S(N)(=O)=O)sc1=N,6.26,
Nc1ccc(S(N)(=O)=O)cc1F,5.91,
Nc1ccc(S(N)(=O)=O)cc1Cl,6.42,
Nc1ccc(S(=O)(=O)NCCc2ccc(S(N)(=O)=O)cc2)cc1,6.94,
NS(=O)(=O)c1ccc(S(=O)(=O)Nc2cccc3c(Cl)c[nH]c23)cc1,6.38,
CCN[C@H]1CN(CCCOC)S(=O)(=O)c2sc(S(N)(=O)=O)cc21 [BRINZOLAMIDE],6.68,
NS(=O)(=O)c1ccc(C(=O)O)cc1 [CARZENIDE],5.98,
NCc1ccc(S(N)(=O)=O)cc1 [MAFENIDE],6.06,
Cc1ccc(S(N)(=O)=O)cc1 [P-TOLUENESULFONAMIDE],6.35,
